Test results published in US12268727B2, “Bioactive polypeptides for improvements in plant protection, growth and productivity” (priority 2017, dated 2025).
Where “and” joins values, the source holds several entries; their conditions need not be identical. Identical values can stand only once. Like-named read-outs stand apart in the source and are kept apart here.

Legend:
soybean = experiment: Soybean yield in trials infected with Phakopsora pachyrhizi and Cercospora kikuchii, Paraguay; assay type: in vivo; details: for yield increase vs untreated control: FOX Fungicide where combined
Source text: Beginning at the R1 stage of development, soybean plants received two foliar applications of the compositions described in Table 90 with an interval of 13-14 days between spray applications. Foliar treatments were applied to a single soy variety (which one? Same at all 3 sites) at the three sites, with 4 replicated plots (3×10 meters, 30 m2; with minimum of 6 rows per treatment). Disease assessments for trials that were naturally infected were scored for the severity of infection (0-100% of foliage affected) were scored for 10 plants within each plot for both Asian soybean rust caused by Phakopsora pachyrhizi and Cercospora leaf blight of soybean caused by Cercospora kikuchii at the R4-R5 stage of soy development (4-15 days after second foliar application) with guidance from Godoy et al (1997; Journal of plant diseases and protection 104:336-345). Percent phytotoxicity (0-100% of foliage affected) was also scored at the R4-R5 stage of soy development. Severity of infection and phytotoxicity were averaged across all four replicates per site (Total=12 replicates, 3 sites with 4 replicates each). Standard deviation for each treatment between the three sites was calculated.

peppers (Capsicum) = experiment: Foliar application to pepper, yield; assay type: in vivo, pepper (Capsicum); details: for increase in average fruit weight per plant vs surfactant only: Jalapeno, pre-bloom; for combined yield average increase, RK and HHW varieties: first flower
Method: Foliar treatments of Bt.4Q7 Flg22 and Ec.Flg22 bioactive priming polypeptides were applied using small scale plots designed to simulate commercial growing conditions for peppers (Capsicum). Two varieties of pepper: Red Knight (RK) and Hungarian Hot Wax (HHW) were grown from 6-week old transplants in raised beds covered with black plastic mulch that had good water-holding characteristics and a pH of 5.8-6.6. Plants were grown using drip irrigation and fertilizer applied following grower guidelines throughout the growing season to ensure optimum plant growth and yields. Small raised bed plots were designed to simulate the planting densities used by commercial growers that generally plant approximately 10,000-14,000 plants per acre in double rows 14-18 inches (35.6 to 46 cm) apart on plastic mulched beds with 16-24 inches (40.6 to 61 cm) between plants in the row and with the beds spaced 5.0-6.5 feet ([…]) apart from their centers. A single row of peppers also can be planted on each bed (5,000-6,500 plants per acre or 12,355-16,062 plants per hectare).
Effects of the foliar applications on pepper yield were determined for two separate harvests using a once over harvest approach and normalized to the yield of the control plants. The average percentage change in yield for each treatment over the yield for the control plants is reported as pounds/acre (lbs/Ac) in Table 29.
Foliar treatment of Gm.RHPP (SEQ ID NO: 600) was applied as an exogenous spray at the first-bloom stage to increase yield in two pepper varieties. Foliar treatment of Gm.RHPP was applied using small scale plots designed to simulate commercial growing conditions for peppers (Capsicum) as described in Example 13. Foliar applications with the Gm.RHPP bioactive priming polypeptide were applied at the first flower stage, on two varieties of pepper, Red Knight (RK) and Hungarian Hot Wax (HHW). […] Effects of the foliar applications on pepper yield were determined for two separate harvests using a once over harvest approach and normalized to the yield of the control plants. The average percentage change in yield over the yield for the control plants is reported in Table 42, as the percent change per total weight (lbs/Ac) of peppers harvested. Average percent change in yield is reported for the 2 replicate harvests (trials) for the RK and HHW pepper varieties and then as a combined average for both varieties.
Small-scale plots were designed to simulate commercial growing conditions for jalapeno peppers. Peppers were grown for 12-weeks in a controlled growth room and then transplanted outside in 2 raised beds covered with black plastic mulch that had good water-holding characteristics and in soil having a pH of 5.8-6.6. Jalapeno pepper plants were spaced 14-16 inches (38 cm) apart with 16-24 inches (50 cm) between plants containing approximately 25 plants per row bed. Plants were grown using drip irrigation and fertilizer applied following grower guidelines throughout the growing season to provide optimum conditions for plant growth. The raised bed plots were designed to simulate the planting densities used by commercial growers that generally plant approximately plants per acre (5,000-6,500 plants per acre or 12,355-16,062 plants per hectare) in double rows 35.6-45.7 cm apart with the beds spaced 5.0-6.5 feet (1.52-1.98 meters) apart from their centers (Orzolek et al., “Agricultural Alternatives: Pepper Production.” University Park: Penn State Extension, 2010).

Phakopsora pachyrhizi = experiment: Asian soybean rust severity and defoliation, field trials in Paraguay; assay type: in vivo; details: for defoliation: Yatytay site; for less Asian soybean rust leaf area damage than untreated control: two foliar applications from R1, 150 and 300 mL/Ha
corn = assay type: in vivo; details: for yield advantage: third study, 10-11 sites
[1] = Jalapeno pepper, foliar at early bloom, 100 μM, 3.2 fl oz/Ac
[2] = Bt.4Q7Flg22 2 Fl. oz/Ac, Gm.RHPP 3.2 Fl. oz/Ac
[3] = foliar 1 Fl. oz/Ac at first flower, vs water control, 2 harvests
[4] = V5 corn, 8.0 Fl. oz/Ac, 6 locations combined
[5] = foliar at V5, 100 μM, 8.0 Fl. oz/Ac, 6 US Midwest locations
[6] = 1 Fl. oz/Ac, foliar at first flower
[7] = 20 Fl. oz/Ac, foliar at first flower
[8] = combined average of two corn hybrids, two years
[9] = foliar 0.33 Fl. oz/Ac, V5-V8, first year trials, 10 locations
[10] = foliar 0.33 Fl. oz/Ac, V8 corn Dekalb 5064, second year trials
[11] = foliar at V5, 2 hybrids, 2 IL locations with drought-like conditions, 16.7 μM, 4.0 Fl. oz/Ac
[12] = foliar at V5, 2 hybrids, 2 IL locations with drought-like conditions, 16.7 μM, 48.0 Fl. oz/Ac

## GGIRAAPTGNER (Glycine max) [RHPP, Root Hair Promoting Peptide from Glycine max]
soybean; polypeptide 150 mL/Ha
  yield increase vs untreated control: 294.2 kg/Ha
soybean; polypeptide 300 mL/Ha
  yield increase vs untreated control: 506.8 kg/Ha
Peppers (Capsicum); 1 Fl. oz/Ac
  increase in yield vs control, combined average of both varieties: 67%
Peppers (Capsicum); 1 Fl. oz/Ac, HHW peppers
  increase in yield vs control: 46%
Peppers (Capsicum); 1 Fl. oz/Ac, RK peppers
  increase in yield vs control: 87%
Peppers (Capsicum); [1]
  Average Fruit Weight (grams) per Plant: 156.6 grams
  Percentage Change in Fruit Weight Compared to Surfactant Control: +27%
Peppers (Capsicum); [2]
  increase in average fruit weight per plant vs surfactant only: 27%
Peppers (Capsicum); [3]
  Avg. Percent Change Yield Total Weight (lbs/Ac) Hungarian Hot Wax: +46%
  Avg. Percent Change Yield Total Weight (lbs/Ac) Red Knight: +87%
Peppers (Capsicum); foliar 1 Fl. oz/Ac at first flower, vs water control, both varieties
  Combined Avg. Percent Change Yield Total Number (lbs/Ac) RK and HHW: +67%
Phakopsora pachyrhizi; R7, 150 mL/Ha
  defoliation: 96%
Phakopsora pachyrhizi; R7, 300 mL/Ha
  defoliation: 70%
Phakopsora pachyrhizi
  less Asian soybean rust leaf area damage than untreated control: 10.5-11.3%
corn; [4]
  average yield: more than 209 Bu/Ac
  yield increase vs surfactant control: 3.52 Bu/Ac
corn; [5]
  Average Change in Bu/Ac compared to surfactant only control: (+3.52; Bu/Ac
  Average Yield Bu/Ac: 209.67 Bu/Ac
corn; foliar at V5, 100 μM, 8.0 Fl. oz/Ac, vs surfactant only control
  win rate: 64%

## Bt.4Q7Flg22: Flg22 polypeptide (22 amino acids) from flagellin of Bacillus thuringiensis strain 4Q7 (DRLSSGKRINSASDDAAGLAIA; listed as Bacillus thuringiensis)
soybean; Bt.4Q7Flg22 300 mL/Ha, FOX Fungicide at label rate
  increase in yield (relative): 36.1%
soybean; polypeptide 150 mL/Ha
  yield increase vs untreated control: 342.2 kg/Ha
soybean; polypeptide 300 mL/Ha
  yield increase vs untreated control: 427.2 kg/Ha
Peppers (Capsicum); [6]
  Avg. Percent Change Yield Total Weight (lbs/Ac) (Hungarian Hot Wax) 2 Replicate Trials: +77%
  Avg. Percent Change Yield Total Weight (lbs/Ac) Red Knight 2 Replicate Trials: +29%
  Combined Avg. Percent Change Yield Total Number (lbs/Ac) RK and HHW: +53%
Peppers (Capsicum); [7]
  Avg. Percent Change Yield Total Weight (lbs/Ac) (Hungarian Hot Wax) 2 Replicate Trials: +42%
  Avg. Percent Change Yield Total Weight (lbs/Ac) Red Knight 2 Replicate Trials: +8%
  Combined Avg. Percent Change Yield Total Number (lbs/Ac) RK and HHW: +25%
Peppers (Capsicum); 4 Fl. oz/Ac
  increase in average fruit weight per plant vs surfactant only: 40%
Peppers (Capsicum); [2]
  increase in average fruit weight per plant vs surfactant only: 49%
Peppers (Capsicum); high rate 20 Fl. oz/Ac
  combined yield average increase, RK and HHW varieties: 25%
  yield increase over control, HHW variety: 42%
Peppers (Capsicum); low rate 1 Fl. oz/Ac
  combined yield average increase, RK and HHW varieties: 53%
  yield increase over control, HHW variety: 77% and 72%
Phakopsora pachyrhizi; R7, 150 mL/Ha
  defoliation: 70%
Phakopsora pachyrhizi; R7, 300 mL/Ha
  defoliation: 60%
Phakopsora pachyrhizi
  less Asian soybean rust leaf area damage than untreated control: 12.4-13.0%
corn; V5 corn, 2 hybrids, 2 locations Iowa, applied with STRATEGO YLD 4.0 Fl. oz/Ac
  average yield change vs STRATEGO YLD fungicide alone: 5.50 Bu/Ac
corn; V5 corn, 3 DEKALB hybrids, 6-8 locations, 4.0 Fl. oz/Ac
  increase in yield vs base seed treatment + surfactant control: 1.14 Bu/Ac
corn; V8 corn Dekalb 5064, 6 locations, Bt.4Q7Flg22 0.33 Fl. oz/Ac, STRATEGO YLD 4.0 Fl. oz/Ac
  yield increase over non-treated control: 4.84 Bu/Ac
corn; [8]
  2-year average yield increase: 8.0 Bu/Ac
  win rate, multiple year: 86%
corn; drought-like conditions, 2 hybrids, 2 IL locations, 16.7 μM at 4.0 Fl. oz/Ac, cellobiose 320 mM where combined
  yield increase over surfactant control: 3.70 Bu/Ac
corn; drought-like conditions, V5-V7, highest use rate
  yield increase over control: ~27 Bu/Ac
corn; [9]
  average yield increase vs non-treated control: 11.60 Bu/Ac and > 11 Bu/Ac
  win rate: 90%
corn; [10]
  average yield increase over control: 4.8 Bu/Ac and ~5 Bu/Ac
  win rate: 83%
corn; [11]
  Average Change in Yield (Bu/Ac) compared to Surfactant control: +3.70 Bu/Ac
  Average Yield Bu/Ac: 96.46 Bu/Ac
corn; [12]
  Average Change in Yield (Bu/Ac) compared to Surfactant control: +26.61 Bu/Ac
  Average Yield Bu/Ac: 119.37 Bu/Ac
corn; foliar at V8, corn hybrid Dekalb 5064, Bt.4Q7Flg22 0.33 Fl. oz/Ac, STRATEGO YLD 4.0 Fl. oz/Ac
  Average Total Yield Bu/Ac (6 locations): 192.21 Bu/Ac
corn; foliar at V8, corn hybrid Dekalb 5064, Bt.4Q7Flg22 0.33 Fl. oz/Ac, STRATEGO YLD 4.0 Fl. oz/Ac, 6 locations
  Average Bu/Ac Increase compared to Control: +4.84 Bu/Ac
corn; V5-V8, 0.33 Fl. oz/Ac (25 nM)
  yield advantage: 5.75 Bu/Ac
corn; V5-V8, 4 Fl. oz/Ac (300 nM)
  yield advantage: 3.77 Bu/Ac
corn; V5-V8, 8 Fl. oz/Ac (600 nM)
  yield advantage: 5.05 Bu/Ac
